The values that follow are results of earlier work, collected in US20130164335A1, “METHODS AND COMPOSITIONS FOR CELLULAR DRUG RELEASE” (NATIONAL HEALTH RESEARCH INSTITUTES, priority 2011, published 2013).

The conditions of the data set: after the first dosage; from a report.

On to `Cc1cc2c(s1)Nc1ccccc1N=C2N1CCN(C)CC1` [OLZ, Olanzapine], for which the “time to reach steady-state” value was “one week”.
